Experiments:
Assay in all cases: relative viability (nuclei count vs DMSO), 5 days (fraction); higher = more cells survive
[1] = compound: COc1cc(Nc2ncc(F)c(Nc3ccc4c(n3)NC(=O)C(C)(C)O4)n2)cc(OC)c1OC [R406]
How it was run: (§1)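 Viability here means nuclei in treated wells divided by nuclei in vehicle wells, reported as the median across plates. Only plates with control CV below 25% and at least one doubling passed. Lung cancer cell lines in 1536-well plates were exposed to five √10-spaced library-drug doses for 5 days and counted from 4× Hoechst images in MetaXpress.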

[2] = compound: O=C(/C=C/c1cccnc1)NCCCCC1CCN(C(=O)c2ccccc2)CC1 [Daporinad]
How it was run: as §1

[3] = compound: COc1cc(Nc2ncc(F)c(Nc3ccc4c(n3)NC(=O)C(C)(C)O4)n2)cc(OC)c1OC [R406] + CCNC(=O)c1noc(-c2cc(C(C)C)c(O)cc2O)c1-c1ccc(CN2CCOCC2)cc1 [Luminespib] (partner 0.01 µM)
How it was run: (§2)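 Each reported value is a median over duplicate plates. It expresses relative viability: treated-well nuclei count divided by vehicle-well nuclei count. Lung cancer cell lines in 1536-well plates were dosed by pin tool a day after seeding, alone with one drug or with a fixed anchor-drug dose plus five library-drug doses (not always all listed) in √10 steps, and nuclei were counted after 5 days.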

[4] = compound: COc1cc(Nc2ncc(F)c(Nc3ccc4c(n3)NC(=O)C(C)(C)O4)n2)cc(OC)c1OC [R406] + COc1cc2c(Oc3ccc(NC(=O)C4(C(=O)Nc5ccc(F)cc5)CC4)cc3F)ccnc2cc1OCCCN1CCOCC1 [Foretinib] (partner 0.25 µM)
How it was run: as §2

[5] = compound: COc1cc(Nc2ncc(F)c(Nc3ccc4c(n3)NC(=O)C(C)(C)O4)n2)cc(OC)c1OC [R406] + COc1cccc2cc(-c3nc([C@H]4CC[C@H](C(=O)O)CC4)n4ncnc(N)c34)[nH]c12 [OSI-027] (partner 0.5 µM)
How it was run: as §2

[6] = compound: COc1cc(Nc2ncc(F)c(Nc3ccc4c(n3)NC(=O)C(C)(C)O4)n2)cc(OC)c1OC [R406] + Cc1cc(Nc2cc(N3CCN(C)CC3)nc(Sc3ccc(NC(=O)C4CC4)cc3)n2)n[nH]1 [Tozasertib] (partner 0.1 µM)
How it was run: as §2

[7] = compound: COc1cc(Nc2ncc(F)c(Nc3ccc4c(n3)NC(=O)C(C)(C)O4)n2)cc(OC)c1OC [R406] + Cc1nc(Nc2ncc(C(=O)Nc3c(C)cccc3Cl)s2)cc(N2CCN(CCO)CC2)n1 [Dasatinib] (partner 0.075 µM)
How it was run: as §2

[8] = compound: COc1cc(Nc2ncc(F)c(Nc3ccc4c(n3)NC(=O)C(C)(C)O4)n2)cc(OC)c1OC [R406] + N=C(N)NC(=N)NCCc1ccccc1 [Phenformin] (partner 250 µM)
How it was run: as §2

[9] = compound: O=C(/C=C/c1cccnc1)NCCCCC1CCN(C(=O)c2ccccc2)CC1 [Daporinad] + CCNC(=O)c1noc(-c2cc(C(C)C)c(O)cc2O)c1-c1ccc(CN2CCOCC2)cc1 [Luminespib] (partner 0.01 µM)
How it was run: as §2

[10] = compound: O=C(/C=C/c1cccnc1)NCCCCC1CCN(C(=O)c2ccccc2)CC1 [Daporinad] + COc1cc2c(Oc3ccc(NC(=O)C4(C(=O)Nc5ccc(F)cc5)CC4)cc3F)ccnc2cc1OCCCN1CCOCC1 [Foretinib] (partner 0.25 µM)
How it was run: as §2

[11] = compound: O=C(/C=C/c1cccnc1)NCCCCC1CCN(C(=O)c2ccccc2)CC1 [Daporinad] + COc1cccc2cc(-c3nc([C@H]4CC[C@H](C(=O)O)CC4)n4ncnc(N)c34)[nH]c12 [OSI-027] (partner 0.5 µM)
How it was run: as §2

[12] = compound: O=C(/C=C/c1cccnc1)NCCCCC1CCN(C(=O)c2ccccc2)CC1 [Daporinad] + Cc1cc(Nc2cc(N3CCN(C)CC3)nc(Sc3ccc(NC(=O)C4CC4)cc3)n2)n[nH]1 [Tozasertib] (partner 0.1 µM)
How it was run: as §2

[13] = compound: O=C(/C=C/c1cccnc1)NCCCCC1CCN(C(=O)c2ccccc2)CC1 [Daporinad] + Cc1nc(Nc2ncc(C(=O)Nc3c(C)cccc3Cl)s2)cc(N2CCN(CCO)CC2)n1 [Dasatinib] (partner 0.075 µM)
How it was run: as §2

[14] = compound: O=C(/C=C/c1cccnc1)NCCCCC1CCN(C(=O)c2ccccc2)CC1 [Daporinad] + N=C(N)NC(=N)NCCc1ccccc1 [Phenformin] (partner 250 µM)
How it was run: as §2

## NCI-H1623
[1]; 0.08 µM
  relative viability: 0.908
[1]; 0.253 µM
  relative viability: 1.05
[1]; 0.8 µM
  relative viability: 1.11
[1]; 2.53 µM
  relative viability: 0.818
[1]; 8 µM
  relative viability: 0.893
[2]; 0.0005 µM
  relative viability: 0.822
[2]; 0.001581 µM
  relative viability: 1.15
[2]; 0.005 µM
  relative viability: 0.957
[2]; 0.01581 µM
  relative viability: 1.05
[3]; first compound 0.08 µM
  relative viability: 0.435
[3]; first compound 0.253 µM
  relative viability: 0.483
[3]; first compound 0.8 µM
  relative viability: 0.66
[3]; first compound 2.53 µM
  relative viability: 0.371
[3]; first compound 8 µM
  relative viability: 0.424
[4]; first compound 0.08 µM
  relative viability: 0.931
[4]; first compound 0.253 µM
  relative viability: 0.952
[4]; first compound 0.8 µM
  relative viability: 0.962
[4]; first compound 2.53 µM
  relative viability: 0.806
[4]; first compound 8 µM
  relative viability: 0.849
[5]; first compound 0.08 µM
  relative viability: 0.408
[5]; first compound 0.253 µM
  relative viability: 0.429
[5]; first compound 0.8 µM
  relative viability: 0.398
[5]; first compound 2.53 µM
  relative viability: 0.411
[5]; first compound 8 µM
  relative viability: 0.43
[6]; first compound 0.08 µM
  relative viability: 0.447
[6]; first compound 0.253 µM
  relative viability: 0.419
[6]; first compound 0.8 µM
  relative viability: 0.442
[6]; first compound 2.53 µM
  relative viability: 0.429
[6]; first compound 8 µM
  relative viability: 0.401
[7]; first compound 0.08 µM
  relative viability: 0.534
[7]; first compound 0.253 µM
  relative viability: 0.507
[7]; first compound 0.8 µM
  relative viability: 0.587
[7]; first compound 2.53 µM
  relative viability: 0.482
[7]; first compound 8 µM
  relative viability: 0.526
[8]; first compound 0.08 µM
  relative viability: 0.577
[8]; first compound 0.253 µM
  relative viability: 0.624
[8]; first compound 0.8 µM
  relative viability: 0.611
[8]; first compound 2.53 µM
  relative viability: 0.585
[8]; first compound 8 µM
  relative viability: 0.554
[9]; first compound 0.0005 µM
  relative viability: 0.618
[9]; first compound 0.001581 µM
  relative viability: 0.497
[9]; first compound 0.005 µM
  relative viability: 0.472
[9]; first compound 0.01581 µM
  relative viability: 0.555
[10]; first compound 0.0005 µM
  relative viability: 0.726
[10]; first compound 0.001581 µM
  relative viability: 0.754
[10]; first compound 0.005 µM
  relative viability: 0.801
[10]; first compound 0.01581 µM
  relative viability: 0.866
[11]; first compound 0.0005 µM
  relative viability: 0.413
[11]; first compound 0.001581 µM
  relative viability: 0.439
[11]; first compound 0.005 µM
  relative viability: 0.466
[11]; first compound 0.01581 µM
  relative viability: 0.475
[12]; first compound 0.0005 µM
  relative viability: 0.438
[12]; first compound 0.001581 µM
  relative viability: 0.44
[12]; first compound 0.005 µM
  relative viability: 0.39
[12]; first compound 0.01581 µM
  relative viability: 0.445
[13]; first compound 0.0005 µM
  relative viability: 0.537
[13]; first compound 0.001581 µM
  relative viability: 0.463
[13]; first compound 0.005 µM
  relative viability: 0.542
[13]; first compound 0.01581 µM
  relative viability: 0.525
[14]; first compound 0.0005 µM
  relative viability: 0.545
[14]; first compound 0.001581 µM
  relative viability: 0.519
[14]; first compound 0.005 µM
  relative viability: 0.613
[14]; first compound 0.01581 µM
  relative viability: 0.591

Reference: the supplement of paper PMC10307832
